Entries after “also recorded” stand apart in the source; their conditions may differ.
Columns and labels:
Assay type in all cases: cell-based
PDGFRA [1] = test: PDGFRA expression in human islets exposed to 5-aza-C
Excerpt: (§1) The CpG tool of the UCSC genome browser (v257) identifies two CpG islands upstream of the translational start site of the mouse Pdgfra gene, spanning the regions −9040/−9610 and −5662/−5054 (FIG. 20). The more 3′ promoter-proximal CpG island at −5662/−5054 aligns well with regions associated with histone H3K4me1 and H3K4me3, marks of enhancers or cis-regulatory elements, with lesser overlap in the more 5′ CpG island at −9040/−9610. There are also two CpG islands within the −3,600 to +118 region of the human PDGFRA promoter-proximal region, and evidence exists that DNA methylation within the most 3′ CpG island regulates PDGFRA expression (Toepoel et al 2008). […] These findings indicate that DNA methylation and associated chromatin remodeling regulates expression of islet β-cell PDGFRA.

PDGFRA [2] = test: PDGFRA expression in mouse islets exposed to 5-aza-C
Excerpt: as §1

mouse islet β-cells = test: In vitro mouse islet β-cell proliferation (BrdU incorporation); details: 3 week-old mouse islets, PDGF-AA 50 ng/ml plus inhibitor (Sunitinib 2 μM, Vargatef 5 μM), 2 days
Protocol: Mouse pancreatic islets were purified as described in Chen et al. (2009) Genes Dev. 23, 975-985 and used immediately for assays described in the text. To study Ezh2 induction in cultured islets exposed to mitogens, freshly isolated islets from 2-3-week old, and 7-12-month old C57BL/6 mice were recovered and equilibrated overnight at 37° C., 5% CO2 in RPMI-1640 medium supplemented with 0.5% fetal bovine serum (FBS), 0.2% bovine albumin (BSA) and 2% penicillin/streptomycin. Afterwards, islets were distributed into microplates or dishes, and treated with recombinant human PDGF-AA, prolactin or insulin (Sigma), with or without addition of pharmacological inhibitors, including Sunitinib (Selleck), […]0126 (Sigma), LY294002 (Sigma) or U-73122 (Sigma) at the indicated concentrations. Two days later, islets were harvested for RNA or protein extraction for real-time RTPCR or western blot analyses. To detect phosphorylation of Pdgfr-α by western blot, islets were exposed to PDGF-AA (with or without indicated pharmacological inhibitors) for 90 min before islet harvesting and protein extraction. To detect in vitro islet β-cell proliferation stimulated by PDGF-AA, a final concentration of 50 μM BrdU was introduced into each culture dish 24 h before harvest, followed by standard histological processing. Immunostaining of BrdU and insulin was performed on processed islets, and β-cell proliferation rate was determined by quantifying percentage of insulin+ cells with BrdU+. […] For measuring pancreatic β-cell mass or BrdU by morphometry, three to six mice for each group were analysed. At least five sections separated by more than 300 μm (pancreases) or 50 μm (cultured islets) were immunostained and assessed for each sample. Images were analysed with an ImagePro program by observers blinded to genotype, and pancreatic β-cell mass and percentage of BrdU+β-cells were calculated as described in Chen et al. Polycomb protein Ezh2 regulates pancreatic 6-cell Ink4a/Arf expression and regeneration in diabetes mellitus. […]

EZH2 [3] = test: EZH2/EZH1 mRNA in cultured human islets (real-time RT-PCR); details: juvenile human islets, PDGF-AA 50 ng/ml with Sunitinib 2 μM or U0126 10 μM, 2 days
Protocol: Total RNA from freshly isolated or cultured islets after indicated treatments were purified using the Absolutely RNA miniprep purification kit (Stratagene) according to the manufacturer's instructions. RNA concentration was measured with a RiboGreen RNA quantification assay (Invitrogen). One-step quantitative RT-PCR was performed and analysed using an ABI Prism 7300 detection system (Applied Biosystems) with TaqMan one-step RTPCR Master Mix Reagents and appropriate amounts (10-100 ng) of islet total RNA as the template. We calculated the ratio of mRNA for the gene of interest to the amount of internal control mRNA of peptidylprolyl isomerase A (cyclophilin A, PPIA), and then normalized the ratio for each gene to its median. For islet studies, human islets were isolated either at Pittsburgh University Medical Center or the University of Alabama, Birmingham. Eight independent human islet preparations from juvenile donors at the age of 8 months, 1.0, 1.5, 2, 3, 4, 5 and 6 years, and three adult islet preparations from donors at the age of 39, 48 and 56 years were used in this study. After isolation, fresh islets were hand-picked and transferred to RPMI-1640 medium supplemented with 0.5% FBS, 0.2% BSA and 2% penicillin/streptomycin for an overnight recovery before experiments. […] To detect in vitro human islet β-cell proliferation stimulated by PDGF-AA, human islets were exposed to 50 μM BrdU for 24 h. Afterwards, human islets were processed in a similar way as in mouse islet studies for immunostaining of insulin, glucagon, PDX1 and BrdU. β-Cell proliferation rate was determined by quantifying percentage of insulin+ cells with BrdU+. More than 50 islets per group were counted for determining cultured human islet β-cell proliferation rate.

human islet β-cells = test: In vitro human islet β-cell proliferation (BrdU incorporation); details: juvenile human islets, PDGF-AA 50 ng/ml with Sunitinib 2 μM or U0126 10 μM
Excerpt: For islet studies, human islets were isolated either at Pittsburgh University Medical Center or the University of Alabama, Birmingham. Eight independent human islet preparations from juvenile donors at the age of 8 months, 1.0, 1.5, 2, 3, 4, 5 and 6 years, and three adult islet preparations from donors at the age of 39, 48 and 56 years were used in this study. After isolation, fresh islets were hand-picked and transferred to RPMI-1640 medium supplemented with 0.5% FBS, 0.2% BSA and 2% penicillin/streptomycin for an overnight recovery before experiments. […] To detect in vitro human islet β-cell proliferation stimulated by PDGF-AA, human islets were exposed to 50 μM BrdU for 24 h. Afterwards, human islets were processed in a similar way as in mouse islet studies for immunostaining of insulin, glucagon, PDX1 and BrdU. β-Cell proliferation rate was determined by quantifying percentage of insulin+ cells with BrdU+. More than 50 islets per group were counted for determining cultured human islet β-cell proliferation rate.

Ezh2 [4] = test: Ezh2/Ezh1 expression in cultured mouse islets (real-time RT-PCR, western blot); details: 2 days; for effect of inhibitor on PDGF-AA-induced Ezh2 expression: 3 week-old mouse islets, PDGF-AA plus inhibitor; for Ezh2 mRNA levels after mitogen exposure: juvenile mouse islets exposed to insulin or prolactin
Protocol: Mouse pancreatic islets were purified as described in Chen et al. (2009) Genes Dev. 23, 975-985 and used immediately for assays described in the text. To study Ezh2 induction in cultured islets exposed to mitogens, freshly isolated islets from 2-3-week old, and 7-12-month old C57BL/6 mice were recovered and equilibrated overnight at 37° C., 5% CO2 in RPMI-1640 medium supplemented with 0.5% fetal bovine serum (FBS), 0.2% bovine albumin (BSA) and 2% penicillin/streptomycin. Afterwards, islets were distributed into microplates or dishes, and treated with recombinant human PDGF-AA, prolactin or insulin (Sigma), with or without addition of pharmacological inhibitors, including Sunitinib (Selleck), […]0126 (Sigma), LY294002 (Sigma) or U-73122 (Sigma) at the indicated concentrations. Two days later, islets were harvested for RNA or protein extraction for real-time RTPCR or western blot analyses. To detect phosphorylation of Pdgfr-α by western blot, islets were exposed to PDGF-AA (with or without indicated pharmacological inhibitors) for 90 min before islet harvesting and protein extraction. To detect in vitro islet β-cell proliferation stimulated by PDGF-AA, a final concentration of 50 μM BrdU was introduced into each culture dish 24 h before harvest, followed by standard histological processing. Immunostaining of BrdU and insulin was performed on processed islets, and β-cell proliferation rate was determined by quantifying percentage of insulin+ cells with BrdU+. Culture experiments of human islets were performed using a similar procedure described later. Total RNA from freshly isolated or cultured islets after indicated treatments were purified using the Absolutely RNA miniprep purification kit (Stratagene) according to the manufacturer's instructions. RNA concentration was measured with a RiboGreen RNA quantification assay (Invitrogen). One-step quantitative RT-PCR was performed and analysed using an ABI Prism 7300 detection system (Applied Biosystems) with TaqMan one-step RTPCR Master Mix Reagents and appropriate amounts (10-100 ng) of islet total RNA as the template. We calculated the ratio of mRNA for the gene of interest to the amount of internal control mRNA of peptidylprolyl isomerase A (cyclophilin A, PPIA), and then normalized the ratio for each gene to its median. For western blots, total islet protein was prepared from freshly isolated or cultured islets after indicated treatments as described in Chen et al. (2009) Genes Dev. 23, 975-985. Equal amounts of protein were resolved on SDS-PAGE and transferred to polyvinylidine fluoride membranes (Amersham Pharmacia) for immunoblotting with specific antibodies, including rabbit polyclonal anti-human Ezh2 (1:1,000, Millipore), rabbit polyclonal anti-phospho-PDGFR-α ([…]) (1:1,000, Santa Cruz Biotechnologies), rabbit monoclonal anti-PDGFR-α (1:1,000, Cell Signaling), mouse monoclonal anti-β-actin (1:4,000, Sigma), rabbit monoclonal anti-Akt (1:1,500, Cell Signaling), rabbit monoclonal anti-phospho-Ark ([…]) (1:1,000, Cell Signaling), rabbit monoclonal anti-p44/42 MAPK (Erk1/2) (1:1,500, Cell Signaling), rabbit monoclonal anti-phospho-p44/42 MAPK (Erk1/2) […]) (1:1,000, Cell Signaling), rabbit monoclonal anti-PLCγ1 (1:1,000, Cell Signaling) and rabbit monoclonal anti-phospho-PLCγ1 ([…]) (1:1,000, Cell Signaling). Signal was visualized using ECL detection (Amersham Pharmacia) on Kodak film after further incubation with HRP-conjugated secondary antibodies. For phospho-PDGFR-α ([…]) and PDGFR-α detection, signal was amplified by incubating the membrane with biotinylated anti-rabbit-IgG (1:2,000), followed with an incubation with HRP-avidin (1:2,000, Vector Laboratories) and then ECL visualization.

Which results are given for `Nc1ncn([C@@H]2O[C@H](CO)[C@@H](O)[C@H]2O)c(=O)n1` [5-aza-C, 5-aza-cytidine]?
derepression of PDGFRA (PDGFRA [1]): dosage-dependent derepression; also recorded: dosage-dependent de-repression; derepression of PDGFRA (PDGFRA [2]): dosage-dependent derepression; also recorded: dosage-dependent de-repression

Which results are given for `N#CC(=C(/N)Sc1ccccc1N)/C(C#N)=C(\N)Sc1ccccc1N` [U0126, reference compound]?
effect of inhibitor on PDGF-AA-increased β-cell BrdU incorporation (mouse islet β-cells): blocked; also recorded: attenuates; effect of inhibitor on PDGF-AA-increased EZH2 mRNA (EZH2 [3]): blocked; effect of inhibitor on PDGF-AA-increased β-cell BrdU incorporation (human islet β-cells): eliminated; effect of inhibitor on PDGF-AA-induced Ezh2 expression (Ezh2 [4]): blocked; also recorded: attenuates

`COC(=O)c1ccc2c(c1)NC(=O)/C2=C(\Nc1ccc(N(C)C(=O)CN2CCN(C)CC2)cc1)c1ccccc1` [Vargatef, reference compound] was tested. Which “effect of inhibitor on PDGF-AA-increased β-cell BrdU incorporation” value (mouse islet β-cells) did it give?
Its value is “eliminated”.

What about the “effect of inhibitor on PDGF-AA-induced Ezh2 expression” value (Ezh2 [4]) of the same molecule?
Its value is “eliminated”.

How did the “Ezh2 mRNA levels after mitogen exposure” value (Ezh2 [4]) turn out when insulin was run?
The value was “did not detectably alter”.

And the “Ezh2 mRNA levels after mitogen exposure” value (Ezh2 [4]; listed as Insulin)?
Its value is “did not induce”.
